Among the data in patent US20260015350A1, “AZAQUINAZOLINE PAN-KRAS INHIBITORS” (Mirati Therapeutics, Inc., priority 2022, published 2026) are IC50 values, retold here.

One may read the IC50 as the point on the concentration scale where inhibition reaches its midpoint. High values mean weaker potency in that assay, low ones greater potency in that assay.

Assay [1] concerns the target T1, KRas^G12D (Homo sapiens, UniProt P01116, G12D).
T1 construct: Biotinylated KRas (corresponding to amino acids 1-169, produced at Accelegan Inc.); biotin (biotinylated); purchased Accelegan Inc
As to the kind of experiment: KRas binding assay (TR-FRET tracer displacement), KRas G12D. For orientation: Time-resolved FRET reads energy transfer from a long-lived donor to a nearby acceptor.

Assay [2] relates to KRas-mediated phosphorylation of ERK in PSN1 cells. As to the kind of experiment: Inhibition of KRas-mediated phosphorylation of ERK (Cisbio HTRF pERK), PSN1 cells. It counts as cell-based. Conditions: Homo sapiens. In a few lines: (§1)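 Overnight culture at 37° C./5% CO2 in RPMI containing 10% FBS, seeded 6,000 cells per well, preceded the assay. A covered 4-hour incubation at room temperature followed, then HTRF signal for phosphorylated ERK was measured.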

The test system of assay [3] is KRas-mediated phosphorylation of ERK in MKN1 cells. Kind of assay: Inhibition of KRas-mediated phosphorylation of ERK (Cisbio HTRF pERK), MKN1 cells. It counts as cell-based. The note with it: Homo sapiens, MKN-1. In a few lines:
as §1

Assay [4] deals with KRas-mediated phosphorylation of ERK in H460 cells. Kind of assay: Inhibition of KRas-mediated phosphorylation of ERK (Cisbio HTRF pERK), H460 cells. It counts as cell-based. The note with it: Homo sapiens, NCI-H460, HTRF pERK. Put shortly:
(§2)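 6,000 cells/well; cpd 10 uM top, 3-fold x10, 0.8% DMSO final; 3 hr incubation; Min ctrl Trametinib 0.2 uM; lysis 40 min 4° C shaking; d2 + Cryptate Ab mix, 2 hr RT; HTRF read.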

The target in assay [5] is T2, KRas^G12V (Homo sapiens, UniProt P01116, G12V).
T2 construct: Biotinylated KRas (corresponding to amino acids 1-169, produced at Accelegan Inc.); biotin (biotinylated); purchased Accelegan Inc
As to the kind of experiment: KRas binding assay (TR-FRET tracer displacement), KRas G12V.

Assay [6] relates to KRas-mediated phosphorylation of ERK in HCT116 cells. Kind of assay: Inhibition of KRas-mediated phosphorylation of ERK (Cisbio HTRF pERK), HCT116 cells. In kind it is cell-based. Conditions: Homo sapiens, HCT-116, HTRF pERK. In a few lines: as §2
Assay [7] has as its target T3, KRas^G12R (Homo sapiens, UniProt P01116, G12R).
T3 construct: Biotinylated KRas (corresponding to amino acids 1-169, produced at Accelegan Inc.); biotin (biotinylated); purchased Accelegan Inc
As to the kind of experiment: KRas binding assay (TR-FRET tracer displacement), KRas G12R.

The test system of assay [8] is KRas-mediated phosphorylation of ERK in A549 cells. Kind of assay: Inhibition of KRas-mediated phosphorylation of ERK (Cisbio HTRF pERK), A549 cells. In kind it is cell-based. The note with it: Homo sapiens, HTRF pERK. Put shortly:
as §2

In assay [9] the test system is KRas-mediated phosphorylation of ERK in H358 cells. As to the kind of experiment: Inhibition of KRas-mediated phosphorylation of ERK (Cisbio HTRF pERK), H358 cells. In kind it is cell-based. Conditions: Homo sapiens, NCI-H358, HTRF pERK. In a few lines:
as §2

For assay [10], the system named is KRas-mediated phosphorylation of ERK in H727 cells. As to the kind of experiment: Inhibition of KRas-mediated phosphorylation of ERK (Cisbio HTRF pERK), H727 cells. In kind it is cell-based. Conditions: Homo sapiens, NCI-H727, H727 cells; HTRF pERK. In a few lines:
as §2

The test system of assay [11] is KRas-mediated phosphorylation of ERK in AsPC-1 cells. Kind of assay: Inhibition of KRas-mediated phosphorylation of ERK (Cisbio HTRF pERK), AsPC-1 cells. It counts as cell-based. Conditions: Homo sapiens, ASPC1, AsPC-1 cells; HTRF pERK. In a few lines:
as §2

T3 sequence (P01116 1-169 isoform P01116-2 G12R): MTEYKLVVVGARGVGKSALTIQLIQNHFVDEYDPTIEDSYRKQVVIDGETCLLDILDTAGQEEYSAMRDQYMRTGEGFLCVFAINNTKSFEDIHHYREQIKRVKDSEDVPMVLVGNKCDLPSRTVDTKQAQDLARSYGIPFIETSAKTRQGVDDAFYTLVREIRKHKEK
T1 sequence (P01116 1-169 isoform P01116-2 G12D): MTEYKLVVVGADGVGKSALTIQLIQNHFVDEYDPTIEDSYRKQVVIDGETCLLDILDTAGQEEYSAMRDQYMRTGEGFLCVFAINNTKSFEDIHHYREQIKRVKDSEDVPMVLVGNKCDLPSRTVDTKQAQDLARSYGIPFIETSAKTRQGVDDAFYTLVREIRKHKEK
T2 sequence (P01116 1-169 isoform P01116-2 G12V): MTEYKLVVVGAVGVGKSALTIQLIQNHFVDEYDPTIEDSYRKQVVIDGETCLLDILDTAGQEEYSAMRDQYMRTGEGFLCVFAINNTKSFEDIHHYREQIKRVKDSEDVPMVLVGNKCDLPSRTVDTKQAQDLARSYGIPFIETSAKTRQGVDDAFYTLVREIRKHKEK

As to `CCc1c(F)ccc2cc(O)cc(-c3ncc4c(N5CC6CCC(C5)C6(O)C(F)(F)F)nc(OC[C@@]56CCCN5C[C@H](F)C6)nc4c3F)c12` (stereo partly drawn) [Example 843, (1R,5S,8R)-3-(7-(8-ethyl-7-fluoro-3-hydroxynaphthalen-1-yl)-8-fluoro-2-(((2R,7aS)-2-fluorotetrahydro-1H-pyrrolizin-7a(5H)-yl)methoxy)pyrido[4,3-d]pyrimidin-4-yl)-8-(trifluoromethyl)-3-azabicyclo[3.2.1]octan-8-ol], the IC50 is 265 nM in assay [1]; over 10000 nM in [2]; 55 nM in assay [3]; 162 nM in assay [4]; 79 nM in assay [5]; 305 nM in [6]. Also, the IC50 stood at 26 nM in assay [7]; 2510 nM in assay [8]; 478 nM in assay [9]; 5300 nM in assay [10]; 6230 nM in assay [11].
For `CCc1c(F)ccc2cc(O)cc(-c3ncc4c(N5CC6CCC(C5)C6CO)nc(OC[C@@]56CCCN5C[C@H](F)C6)nc4c3F)c12` (stereo partly drawn) [Example 845, 5-ethyl-6-fluoro-4-(8-fluoro-2-(((2R,7aS)-2-fluorotetrahydro-1H-pyrrolizin-7a(5H)-yl)methoxy)-4-((1R,5S,8S)-8-(hydroxymethyl)-3-azabicyclo[3.2.1]octan-3-yl)pyrido[4,3-d]pyrimidin-7-yl)naphthalen-2-ol], the IC50 in assay [1] amounted to 41 nM; in [2], 3460 nM; in [3], 64 nM; in assay [4], 80 nM; in assay [5], 10 nM; in [6], 159 nM. Also, the IC50 in assay [7] is 11 nM; in assay [8], 1190 nM; in assay [9], 241 nM; in assay [10], 1150 nM; in [11], 1570 nM.
For the compound `CCc1c(F)ccc2cc(O)cc(-c3ncc4c(N5CC6CCC(C5)C6(C)O)nc(OC[C@@]56CCCN5C[C@H](F)C6)nc4c3F)c12` (stereo partly drawn) [Example 846, (1R,5S,8R)-3-(7-(8-ethyl-7-fluoro-3-hydroxynaphthalen-1-yl)-8-fluoro-2-(((2R,7aS)-2-fluorotetrahydro-1H-pyrrolizin-7a(5H)-yl)methoxy)pyrido[4,3-d]pyrimidin-4-yl)-8-methyl-3-azabicyclo[3.2.1]octan-8-ol], the IC50 in assay [1] was 159 nM; in assay [2], over 10000 nM; in assay [3], 102 nM; in [4] it was 238 nM; in assay [5], 28 nM; in assay [6] it was 572 nM. Moreover, the IC50 amounted to 38 nM in assay [7]; 2680 nM in assay [8]; 746 nM in [9]; 2850 nM in [10]; 4470 nM in [11].
Turning to `CCc1c(F)ccc2cc(O)cc(-c3ncc4c(N5CC6CCC(C5)C6CCO)nc(OC[C@@]56CCCN5C[C@H](F)C6)nc4c3F)c12` (stereo partly drawn) [Example 847, 5-ethyl-6-fluoro-4-(8-fluoro-2-(((2R,7aS)-2-fluorotetrahydro-1H-pyrrolizin-7a(5H)-yl)methoxy)-4-((1R,5S,8S)-8-(2-hydroxyethyl)-3-azabicyclo[3.2.1]octan-3-yl)pyrido[4,3-d]pyrimidin-7-yl)naphthalen-2-ol], the IC50 in assay [1] is 140 nM; in assay [2], over 10000 nM; in [3], 270 nM; in assay [4], 582 nM; in [5] it was 20 nM; in assay [6], 1430 nM. Also, the IC50 in assay [7] is 39 nM; in [8], 1820 nM; in assay [9], 494 nM; in [10] it was 1640 nM; in [11] it was 4520 nM.
Consider `CCc1c(F)ccc2cc(O)cc(-c3ncc4c(N5C[C@H]6CC[C@@H](C5)[C@H]6O)nc(OC[C@@]56CCCN5C[C@H](F)C6)nc4c3F)c12` [Example 848, (1R,5S,8S)-3-(7-(8-ethyl-7-fluoro-3-hydroxynaphthalen-1-yl)-8-fluoro-2-(((2R,7aS)-2-fluorotetrahydro-1H-pyrrolizin-7a(5H)-yl)methoxy)pyrido[4,3-d]pyrimidin-4-yl)-3-azabicyclo[3.2.1]octan-8-ol], for which the IC50 was 39 nM in assay [1]; over 10000 nM in assay [2]; 100 nM in assay [3]; 275 nM in assay [4]; 9 nM in assay [5]; 496 nM in assay [6]. The half-maximal inhibitory concentration (IC50) in assay [7] is 12 nM; in assay [8], 809 nM; in assay [9], 310 nM; in assay [10] it was 896 nM; in assay [11] it was 2060 nM.
As for `C=C1[C@@H]2CC[C@H]1CN(c1nc(OC[C@@]34CCCN3C[C@H](F)C4)nc3c(F)c(-c4cc(O)cc5ccc(F)c(CC)c45)ncc13)C2` [Example 849, 5-ethyl-6-fluoro-4-(8-fluoro-2-(((2R,7aS)-2-fluorotetrahydro-1H-pyrrolizin-7a(5H)-yl)methoxy)-4-((1R,5S)-8-methylene-3-azabicyclo[3.2.1]octan-3-yl)pyrido[4,3-d]pyrimidin-7-yl)naphthalen-2-ol], the IC50 in assay [1] was 65 nM; in assay [2], over 10000 nM; in assay [3], 189 nM; in assay [4], 802 nM; in assay [5], 9 nM; in assay [6], 1780 nM. Further, the IC50 in [7] is 24 nM; in assay [8], 1270 nM; in assay [9] it was 286 nM; in [10], 1000 nM; in [11], 3090 nM.
In the case of `CCc1c(F)ccc2cc(O)cc(-c3ncc4c(N5CC6CCC(C5)C6C(=O)NC)nc(OC[C@@]56CCCN5C[C@H](F)C6)nc4c3F)c12` (stereo partly drawn) [Example 850, (1R,5S,8S)-3-(7-(8-ethyl-7-fluoro-3-hydroxynaphthalen-1-yl)-8-fluoro-2-(((2R,7aS)-2-fluorotetrahydro-1H-pyrrolizin-7a(5H)-yl)methoxy)pyrido[4,3-d]pyrimidin-4-yl)-N-methyl-3-azabicyclo[3.2.1]octane-8-carboxamide], the IC50 in assay [1] was 6 nM; in assay [2] it was over 10000 nM; in assay [3] it was 4 nM; in assay [4] it was 83 nM; in assay [5], 8 nM; in assay [6] it was 171 nM. For the same compound, the half-maximal inhibitory concentration (IC50) in assay [7] came to 10 nM; in assay [8], 862 nM; in assay [9], 150 nM; in [10], 2280 nM; in assay [11] it was 1450 nM.
`CCc1c(F)ccc2cc(O)cc(-c3ncc4c(N5CCC[C@@](C)(O)C5)nc(OC[C@@]56CCCN5[C@H](COCC5CCC5)CC6)nc4c3F)c12` [Example 852, (R)-1-(2-(((3S,7aS)-3-((cyclobutylmethoxy)methyl)tetrahydro-1H-pyrrolizin-7a(5H)-yl)methoxy)-7-(8-ethyl-7-fluoro-3-hydroxynaphthalen-1-yl)-8-fluoropyrido[4,3-d]pyrimidin-4-yl)-3-methylpiperidin-3-ol]: the IC50 in assay [1] was under 2 nM; in assay [2], 923 nM; in [3] it was 5 nM; in assay [4], 42 nM; in assay [5] it was under 2 nM; in assay [6] it was 38 nM. In addition, the IC50 was under 2 nM in assay [7]; 68 nM in assay [8]; 12 nM in assay [9]; 109 nM in [10]; 35 nM in assay [11].
For the compound `CCOC[C@@H]1CC[C@]2(COc3nc(N4CCC[C@@](C)(O)C4)c4cnc(-c5cc(O)cc6ccc(F)c(CC)c56)c(F)c4n3)CCCN12` [Example 853, (R)-1-(2-(((3S,7aS)-3-(ethoxymethyl)tetrahydro-1H-pyrrolizin-7a(5H)-yl)methoxy)-7-(8-ethyl-7-fluoro-3-hydroxynaphthalen-1-yl)-8-fluoropyrido[4,3-d]pyrimidin-4-yl)-3-methylpiperidin-3-ol], the IC50 was under 2 nM in assay [1]; 1070 nM in [2]; 1 nM in [3]; 23 nM in assay [4]; under 2 nM in [5]; 36 nM in assay [6]. For the same compound, the IC50 in assay [7] is under 2 nM; in [8], 39 nM; in [9] it was 10 nM; in assay [10], 67 nM; in [11], 33 nM.
